Experimental data from the Biogen ADME set (Fang et al. 2023).
≈ marks a conversion by molar mass, not a printed value.

Settings: for aqueous solubility: pH 6.8

| SMILES | MDR1-MDCK efflux ratio | intrinsic clearance, human liver microsomes [mL/min/kg] | intrinsic clearance, rat liver microsomes [mL/min/kg] | aqueous solubility [µg/mL] | fraction unbound, human plasma | fraction unbound, rat plasma |
| --- | --- | --- | --- | --- | --- | --- |
| CC1(C)Cc2cc(CN3CCC4(CC3)NC(=O)N(Cc3ccccc3)C4=O)ccc2O1 | 7.73 | 55.8 | 294 | 36.4 (≈ 86.6 µM) |  |  |
| O=c1n(CCn2ccnc2)nnn1-c1cccs1 | 0.738 | ≤ 4.74 | 55.6 |  |  |  |
| CCN(Cc1cccs1)C(=O)CN1CCC(n2c(=O)[nH]c3ccccc32)CC1 |  | 151 | 2800 |  |  |  |
| Cc1cccc(NCCc2cc(F)cc3c2OCOC3)n1 | 0.374 | 397 | 5180 |  |  |  |
| Nc1ccnc2ccc(Oc3ccccc3)cc12 | 0.486 | 13.5 | 2330 |  |  |  |
| CCc1nnc(Sc2nc3cc(C)nn3c3ccccc23)[nH]1 | 1.21 | 13.7 | 139 |  |  |  |
| CSC1(CNC(=O)N2CCC=C(c3ccccc3)C2)CCOCC1 | 1.61 | 120 | 2750 |  |  |  |
| Clc1ccc2c(c1)CCc1cccnc1C2=C1CCNCC1 | 47.8 | ≤ 4.74 | 108 |  |  |  |
| COc1ncc(-c2cccc(N(C)C)c2)c(OC)n1 |  | 193 | 2230 | 24.9 (≈ 96 µM) |  |  |
| N#CCc1ccc(NC(=O)C2CC2)cc1 |  |  |  | 30.6 (≈ 153 µM) |  |  |
| O=c1[nH]c2ccccc2n1C1CCN(Cc2nc(Cc3ccccc3)no2)CC1 |  | 69.7 | 857 |  |  |  |
| CCOC(=O)Nc1cc(-c2ccc(C)c(NS(C)(=O)=O)c2)nn2c(C)nnc12 | 28.4 | 7.01 | 124 | 51.4 (≈ 127 µM) |  |  |
| CCOc1ccc(NC(=O)c2ccc3c(c2)NC(=O)CO3)cc1 |  | ≤ 4.74 | 459 |  |  |  |
| Cc1nn(C)c2sc(C(=O)N3CCC(C(=O)O)(c4ccccc4)CC3)cc12 | 8.54 | ≤ 4.74 | ≤ 10.7 | 73.7 (≈ 192 µM) |  |  |
| CCn1nccc1-c1n[nH]c(=O)n1Cc1ccccc1 |  |  |  | 27 (≈ 100 µM) |  |  |
| COc1ccccc1-n1cc(CNC(=O)N(C)Cc2c(C)nn(C)c2C)cn1 | 54.7 | 75.5 | 511 |  |  |  |
| CCN(CC)Cc1cccc(/C=C/c2nc3ccc(F)cc3c(=O)n2-c2ccccc2Cl)n1 | 8.43 | 69.4 | 516 | 67.5 (≈ 146 µM) |  |  |
| N#Cc1ccccc1Cn1nnc(-c2ccccc2)n1 | 0.448 | 10.7 | 211 | 11.4 (≈ 43.8 µM) |  |  |
| CN(Cc1cnc2ccccc2n1)S(=O)(=O)N1CCCC1 | 0.702 | 13.3 | 1600 |  |  |  |
| CCOC(=O)c1cccnc1-c1cccc2ccnn12 | 0.687 | ≤ 4.74 | 80.1 | 45.8 (≈ 171 µM) |  |  |

| SMILES | MDR1-MDCK efflux ratio | intrinsic clearance, human liver microsomes [mL/min/kg] | intrinsic clearance, rat liver microsomes [mL/min/kg] | aqueous solubility [µg/mL] | fraction unbound, human plasma | fraction unbound, rat plasma |
| --- | --- | --- | --- | --- | --- | --- |
| O=C(NC1=NS(=O)(=O)c2ccccc21)c1cc(-c2ccc(F)cc2)no1 | 2.56 | 90.3 | ≤ 10.7 | 31.8 (≈ 85.5 µM) |  |  |
| O=c1n(Cc2ccccn2)nc2n1-c1cc(Cl)ccc1C1=NCCN12 |  | ≤ 4.74 | 47.9 |  |  |  |
| Oc1ccc(-c2noc(C3CC3)n2)cc1 | 0.674 |  |  | 49 (≈ 242 µM) |  |  |
| CCN(CC)C(=O)Oc1cccc2cccnc12 |  | 20.6 | 189 |  |  |  |
| CCC1=Nc2c(cnn2-c2cccc(Cl)c2)C2=NCCCN12 |  |  |  | 53.2 (≈ 170 µM) |  |  |
| Nc1ncc(C(=O)NC2CN(C(=O)C3CC3)C2)c2ccc(-c3cccc(F)c3)nc12 | 18.1 | ≤ 4.74 | 29.5 | 7.6 (≈ 18.7 µM) | 0.042 | 0.0241 |
| Cc1ncc(CN2CC[C@@H](Nc3cncc(Cl)n3)[C@@H](C)C2)s1 | 0.974 | 75.6 | 637 | 52.8 (≈ 156 µM) | 0.16 | 0.184 |
| CCOc1cc(CC(=O)N[C@@H](CC(C)C)c2ccccc2N2CCCCC2)ccc1C(=O)O | 28.7 | 38.2 | 218 |  | 0.0128 | 0.00864 |
| OCC1CCCCN1Cc1ccc(Cl)c(Cl)c1 (stereo not drawn) | 0.524 | ≤ 4.74 | 299 | 42 (≈ 153 µM) | 0.246 | 0.305 |
| COc1cc(Nc2ncc3c(n2)-c2ccc(Cl)cc2C(c2c(F)cccc2OC)=NC3)ccc1C(=O)O | 13.5 | ≤ 4.74 | 20.5 | 73.1 (≈ 141 µM) |  |  |
| CCc1nc(CN2CCC(=O)Nc3cc(F)ccc32)n[nH]1 | 14.7 | ≤ 4.74 | 16.1 |  |  |  |
| Cc1nc(N2CCn3ccnc3C2)c2cnn(C)c2n1 | 3.63 | 10.5 | ≤ 10.7 | 32.9 (≈ 122 µM) |  |  |
| CN(C)c1cnn(CCC(C#N)(c2ccccc2)c2ccccc2)c(=O)c1 | 2.74 | 124 | 1260 | 22.2 (≈ 62 µM) |  |  |
| Cc1ccc(C)c(C(=O)Nc2cnc3c(c2)c(C)nn3C)c1 | 0.67 | 6.52 | 129 | 2.33 (≈ 7.92 µM) |  |  |
| Cc1ccc(C)c(NC(=O)c2cccc(-c3ncon3)c2)c1 |  | 41.7 | 164 |  |  |  |
| OC1(Cc2nc(-c3ccsc3)no2)CCCCC1 | 0.564 | 20.5 | 1040 |  |  |  |
| CC(C)c1ccc(NC(=O)Cn2cnc3c2c(=O)n(C)c(=O)n3C)cc1 |  | 16.1 | 195 | 12.7 (≈ 35.7 µM) |  |  |
| c1ccc(-c2nn3c(-c4ccco4)nnc3c3ccccc23)cc1 |  |  |  | 0.17 (≈ 0.544 µM) |  |  |
| O=C(Nc1ccc(Cl)cc1)C(=O)N(C1CCCC1)C1CC1 |  |  |  | 29.4 (≈ 95.8 µM) |  |  |
| NC(=O)c1cnn(Cc2cccc(F)c2)c1 |  | ≤ 4.74 | ≤ 10.7 |  |  |  |

| SMILES | MDR1-MDCK efflux ratio | intrinsic clearance, human liver microsomes [mL/min/kg] | intrinsic clearance, rat liver microsomes [mL/min/kg] | aqueous solubility [µg/mL] | fraction unbound, human plasma | fraction unbound, rat plasma |
| --- | --- | --- | --- | --- | --- | --- |
| NC(=O)COc1ccccc1C(=O)Nc1cccc(-c2ccc3ccccc3c2)n1 | 0.296 | 54.8 | 1060 |  |  |  |
| CCOC(=O)c1cccnc1-c1ccc2[nH]ccc2c1 | 0.599 | 86.4 | 695 | 36.8 (≈ 138 µM) |  |  |
| O=C(Nc1cc(C2CC2)n[nH]1)C1CCN(C(=O)COc2ccccc2)CC1 |  |  |  | 42.5 (≈ 115 µM) |  |  |
| O=C(O)Cc1ccc(Oc2ccncc2)cc1 | 1.2 | ≤ 4.74 | ≤ 10.7 |  |  |  |
| O=C(C1CCC(O)CC1)N1CCCN(c2ccc(F)cc2)CC1 (stereo not drawn) | 4.68 | 11.9 | 206 | 80.7 (≈ 252 µM) |  |  |
| Cc1ccc(OC[C@@H](O)[C@H](C)NC(C)C)c2c1CCC2 | 1.38 | 124 | 3140 |  |  |  |
| COc1cccc(OCCCN)c1-c1cc(Nc2cnc(C#N)cn2)n[nH]1 | 17.5 | ≤ 4.74 | 512 | 39.1 (≈ 107 µM) |  |  |
| Cn1ccc(C(=O)N2CCCC(c3cccc(-c4cccc(Cl)c4)n3)C2)n1 (stereo not drawn) | 0.822 | 63 | 669 | 26.7 (≈ 70.1 µM) |  |  |
| Cc1ccc(CN)c(-n2cc(Cl)cn2)n1 | 0.396 | ≤ 4.74 | 27.4 |  |  |  |
| Cc1ccccc1CNC(=O)c1ccc(-n2ccnc2)nc1 | 0.867 | ≤ 4.74 | 35.3 | 43.6 (≈ 149 µM) |  |  |
| N#Cc1ncn(Cc2ncc(-c3ccccc3)s2)c1C#N |  |  |  | 44.5 (≈ 153 µM) |  |  |
| CN(C)S(=O)(=O)Nc1ccc(-n2ncc3ccccc32)cc1 | 0.562 | 21.5 | 959 | 38.9 (≈ 123 µM) |  |  |
| O=C(Nc1nc2ccccc2[nH]1)c1ccncc1 | 1.24 | ≤ 4.74 | 109 | 5.09 (≈ 21.4 µM) |  |  |
| COc1ccc2cc(-c3[nH]c(-c4ccc(S(C)=O)cc4)nc3-c3ccncc3)ccc2c1 (stereo not drawn) | 34.8 | 4.96 | 121 | 3.4 (≈ 7.74 µM) |  |  |
| CNC(=O)CCc1nc(-c2ccccn2)no1 | 1.05 | ≤ 4.74 | ≤ 10.7 | 50.5 (≈ 217 µM) |  |  |
| c1ccc2c(c1)CCN(Cc1nnc3n1CCC3)C2 | 6.91 | ≤ 4.74 | 34.5 | 35.3 (≈ 139 µM) |  |  |
| COCCOc1cnc2ccn([C@H](C)c3nnc4c(F)cc(-c5cnn(C)c5)cn34)c(=O)c2c1 | 126 | 6.14 | 25.1 |  |  |  |
| C#CCNC(=O)CN1CCCN(C(=O)c2cccc(C)n2)CC1 | 32.5 | ≤ 4.74 | 15.7 | 36.5 (≈ 116 µM) |  |  |
| CCN1CCN(C(=O)CNc2ncnc3onc(C)c23)CC1 | 3.68 | ≤ 4.74 | ≤ 10.7 |  |  |  |
